The values that follow come from patent US20220133702A1, “CYSTIC FIBROSIS TRANSMEMBRANE CONDUCTANCE REGULATOR MODULATORS FOR TREATING AUTOSOMAL DOMINANT POLYCYSTIC KIDNEY DISEASE” (The Johns Hopkins University, priority 2020, published 2022).

For assay [1], the system named is cAMP in PN cells. As to the kind of experiment: Cyclic AMP enzyme immunoassay in cells. Format: cell-based, mouse. To be noted: for increase of cAMP activity: PN cells treated with forskolin or IBMX. On the procedure: FIG. 4A, FIG. 4B, FIG. 4C, FIG. 4D, and FIG. 4E show (FIG. 4A-FIG. 4B) cAMP levels are reduced by VX-809. (FIG. 4A) cAMP levels in mouse tissue were reduced by VX-809. The kidney samples (n=6) analyzed were taken from those depicted in FIG. 1. (FIG. 4B) Confluent PN and PH cells were treated with VX-809 (10 μM) or DMSO for 16 hand then treated with forskolin (100 μM) for 30 min before the cells were harvested for the assay. Columns represent means±SEM. Statistical analysis was performed using a two-tailed Student's t-test. Each set of data is from three individual wells; Note that resting cAMP is greater in PN vs PH cells as previously shown (25). Also note that forskolin caused a large increase in cAMP. A smaller increase occurred with IBMX. However, the increase induced by forskolin alone was similar to that by IBMX plus forskolin. […] (FIG. 4C, FIG. 4D, and FIG. 4E) Adenylyl cyclase expression. (FIG. 4C) Western blot showing the expression of adenylyl cyclase (AC) 6 and AC3 in treated and control PN cells. (FIG. 4D-FIG. 4E) Columns represent means±SEM of the AC3 and AC6 expression. The data were analyzed by non-parametric t-test. The experiment was repeated four times. For all graphs, *P<0.05, **P<0.01, and ***P<0.001;
It has been shown previously in both animal and cell culture models of ADPKD that cells lacking functional PC1 have elevated cAMP levels when compared to normal. To assess the effect of CFTR correctors, cAMP activity was measured in PC1 conditional knockout mouse kidneys and in PN cells that were either left untreated or treated with VX-809. […] Cells were treated with forskolin, which increased cAMP levels drastically (FIG. 4B). It should be noted that VX-809 reduced the forskolin-induced increase in cAMP, indicating a direct action of VX-809 on adenylyl cyclase activity. […] Treating PN cells with forskolin or IBMX (FIG. 4B) increased the cAMP activity by approximately 10-fold.
Cyclic AMP assay. Confluent cells were treated with VX-809 (10 μM) or DMSO for 16 h before being harvested for assay. Cyclic AMP levels were measured with a direct cAMP Enzyme Immunoassay Kit (Sigma, #CA200) according to the manufacturer's protocol. The results are expressed as pmole/ml. Statistical analysis was performed using a two-tailed Student's t-test.

Assay [2] concerns Hsp27, Hsp70, and Hsp90 in PN cells. As to the kind of experiment: Disappearance of Hsps after translation block with cycloheximide. Format: cell-based, mouse. To be noted: cycloheximide 25 μM alone, over 8 h. On the procedure:
FIG. 9A, FIG. 9B, FIG. 9C, FIG. 9D, FIG. 9E, FIG. 9F, FIG. 9G, and FIG. 9H show Hsp27, HSp70, and Hsp90 expression in PN cells treated with VX-809 and/or cycloheximide. (A) Pkd1 null (PN) cells were treated with VX-809 (10 μM) and/or with cycloheximide (25 μM) for indicated time points before being harvested for the assay. (FIG. 9A) Western blot showing expression of Hsp27, Hsp70, and Hsp90 in VX-809-(16 h), cycloheximide-treated, or control PN cells. ((FIG. 9B. (FIG. 9C, and (FIG. 9D) Columns represent averages±standard errors of Hsp27, Hsp70, and Hsp90 expression in cells treated with VX-809 and/or cycloheximide. ((FIG. 9E) Western blot showing expression of Hsp27, Hsp70, and Hsp90 in PN cells treated with VX-809+cycloheximide or control PN cells. ((FIG. 9F, FIG. 9G, and FIG. 9H) Columns represent averages±standard errors of Hsp27, Hsp70, and Hsp90 expression in cells treated only with cycloheximide or in control PN cells. Data were analyzed by non-parametric t-test. The experiments were repeated 3-5 times. *P<0.05, **P<0.01;
To gain more insight into the mechanism whereby VX-809 alters Hsp protein levels, translation was inhibited by using cycloheximide and the disappearance of the three Hsps was monitored. […] Hsp90 was reduced by approximately 25%, and Hsp27 was unchanged.

In the case of `CC(C)Cn1c(=O)n(C)c(=O)c2[nH]cnc21` [IBMX, 3-isobutyl-1-methylxanthine], the “increase of cAMP activity” value in assay [1] is reported as “approximately 10 fold”.
Regarding `C=C[C@@]1(C)CC(=O)[C@]2(O)[C@@]3(C)[C@@H](O)CCC(C)(C)[C@@H]3[C@H](O)[C@H](OC(C)=O)[C@@]2(C)O1` [forskolin], the “increase of cAMP activity” value in assay [1] is on record as “approximately 10 fold”. In addition, the “elevation of cAMP activity” value in assay [1] (forskolin, as stated at the end of Example 4) is on record as approximately 500 fold.
Turning to `C[C@@H]1C[C@@H]([C@H](O)CC2CC(=O)NC(=O)C2)C(=O)[C@@H](C)C1` [cycloheximide], in assay [2], the “steady-state levels of each of the Hsps” value is given as “unchanged”.
